# According to the supplement of paper PMC13380429:
# Key:
# Conditions in all cases: 72 h
# Caco-2 [1] = experiment: cell viability relative to DMSO; higher = less toxic
# Calu-3 [2] = experiment: as above
# HepG2 [3] = experiment: as above
# U2OS [4] = experiment: as above
# Vero E6 [5] = experiment: as above
# Calu-3 [6] = experiment: relative viability EC50 (midpoint between 100% and the lowest measured viability); higher = less toxic
# HepG2 [7] = experiment: as above
# U2OS [8] = experiment: as above
# Vero E6 [9] = experiment: as above
# Caco-2 [10] = experiment: drug sensitivity score (DSS) for viability; higher = more toxic; extreme values may be limits of the assay
# Calu-3 [11] = experiment: as above
# HepG2 [12] = experiment: as above
# U2OS [13] = experiment: as above
# Vero E6 [14] = experiment: as above
# Caco-2 [15] = experiment: relative viability EC50 (midpoint between 100% and the lowest measured viability); higher = less toxic
SMILES,cell viability (Caco-2 [1]; 1 nM) [%],cell viability (Caco-2 [1]; 10 nM) [%],cell viability (Caco-2 [1]; 100 nM) [%],cell viability (Caco-2 [1]; 1000 nM) [%],cell viability (Caco-2 [1]; 10000 nM) [%],cell viability (Calu-3 [2]; 1 nM) [%],cell viability (Calu-3 [2]; 10 nM) [%],cell viability (Calu-3 [2]; 100 nM) [%],cell viability (Calu-3 [2]; 1000 nM) [%],cell viability (Calu-3 [2]; 10000 nM) [%],cell viability (HepG2 [3]; 1 nM) [%],cell viability (HepG2 [3]; 10 nM) [%],cell viability (HepG2 [3]; 100 nM) [%],cell viability (HepG2 [3]; 1000 nM) [%],cell viability (HepG2 [3]; 10000 nM) [%],cell viability (U2OS [4]; 1 nM) [%],cell viability (U2OS [4]; 10 nM) [%],cell viability (U2OS [4]; 100 nM) [%],cell viability (U2OS [4]; 1000 nM) [%],cell viability (U2OS [4]; 10000 nM) [%],cell viability (Vero E6 [5]; 1 nM) [%],cell viability (Vero E6 [5]; 10 nM) [%],cell viability (Vero E6 [5]; 100 nM) [%],cell viability (Vero E6 [5]; 1000 nM) [%],cell viability (Vero E6 [5]; 10000 nM) [%],relative viability EC50 (Calu-3 [6]) [nM],relative viability EC50 (HepG2 [7]) [nM],relative viability EC50 (U2OS [8]) [nM],relative viability EC50 (Vero E6 [9]) [nM],drug sensitivity score (Caco-2 [10]),drug sensitivity score (Calu-3 [11]),drug sensitivity score (HepG2 [12]),drug sensitivity score (U2OS [13]),drug sensitivity score (Vero E6 [14]),relative viability EC50 (Caco-2 [15]) [nM]
CN1CCN(c2ccc3nc(-c4c(N)c5c(F)cccc5[nH]c4=O)[nH]c3c2)CC1 [dovitinib],98.4,101,87.5,85.7,61.8,93.8,97.7,98.6,93.7,81.9,115,96.8,102,60.8,28.8,99,99.5,93.5,97.8,42.3,97.4,96.5,99.6,63.2,42.1,> 10000,924,2880,794,3.6,0.9,8.7,3.4,7.5,–
CCN(CC)CCCCNc1ncc2cc(-c3c(Cl)cccc3Cl)c(NC(=O)NC(C)(C)C)nc2n1,98.4,94.3,96,75.2,69.5,104,90,104,77.2,29.8,98.3,102,106,65.5,40.3,100,101,95.2,76.8,31.9,102,102,104,104,25.2,1340,885,1380,3480,4.4,7.2,7.5,6.7,3.8,–
CCC(=O)c1ccc(OCC(O)CN2CCN(c3ccccc3)CC2)cc1 (configuration not stated) [centpropazine],96.8,92.8,94.6,93.1,98.4,–,–,–,–,–,120,112,106,101,90,100,103,99.3,106,97.3,–,–,–,–,–,–,> 10000,> 10000,–,0,–,0,0,–,> 10000
c1nc2c(NC3CCCCC3)nc(Nc3ccc(N4CCOCC4)cc3)nc2[nH]1 [reversine],99.3,93.6,97.8,84.1,35.2,102,92.4,103,100,73.4,101,89.9,89.2,46.3,27.6,99.9,102,99.4,63.6,23.1,104,98.1,103,65.1,58,–,401,1040,–,6,1,11.5,8.9,6.3,1570
CCCCCS(=O)(=O)CCCCCCCCCCn1c(-c2ccc(O)cc2)c(C)c2cc(O)ccc21,86.2,98.7,97.7,96.8,55.5,101,98.3,100,106,76.5,104,92.3,98.5,96.6,33.8,99.2,96.6,100,101,91.5,95,99.3,100,98.1,77.6,> 10000,2770,> 10000,> 10000,2.8,0.6,4.1,0,1,–
CO[C@H]1CC[C@H](N2C(=O)CNc3ncc(-c4ccc(C(C)(C)O)nc4)nc32)CC1 [CC-223],102,104,99.4,81.9,42.7,94.6,87.1,106,74.4,41.6,103,95.6,98.9,94.6,42.9,99.1,95.6,102,97.7,56,110,104,99.8,92.5,52.7,1110,2390,–,–,5.8,6.6,4,2.6,3.7,1360
Cc1cc(C)c2nc(-c3ccccn3)cc(C(=O)Nc3ccc(S(=O)(=O)Nc4onc(C)c4C)cc3)c2c1 [ML193],95.2,90.1,101,83.7,114,97,93.5,96,86.3,94.9,89.7,108,100,97.2,104,100,98.7,103,98,98.4,–,–,–,–,–,> 10000,> 10000,> 10000,–,0,0,0,0,–,> 10000
